Experimental data: US11325899B2, “Benzofurane and benzothiophene derivatives as PGE2 receptor modulators” (IDORSIA PHARMACEUTICALS LTD, priority 2017, dated 2022)

How the values were obtained:
EP4 receptor = target: T1, EP4 receptor (Homo sapiens, UniProt P35408); test: hEP4 cAMP assay (BT549 breast cancer cells, HTRF cAMP, PGE2 stimulation); type: cell-based; conditions: antagonistic activity, PGE2 6 nM (EC80)
T1 construct: BT549 breast cancer cells, express high endogenous EP4 levels and very low EP2 levels; host or cells: BT549 breast cancer cells
Experimental: (§1) The antagonistic activities of the compounds of formula (I) on the EP2 and EP4 receptors are also determined in accordance with the following experimental method.
(§2) Human tumor cell lines expressing endogenously either EP4 or EP2 are used and cAMP accumulation in cells upon PGE2 stimulation is monitored. SF295 glioblastoma cells express high endogenous EP2 and no EP4, whereas BT549 breast cancer cells, express high endogenous EP4 levels and very low EP2 levels.
(§3) As a detection method for cAMP the HTRF (homogeneous time resolved fluorescence) Cisbio kit (HTRF cAMP dynamic 2 kit 20′000 tests Cisbio Cat. #62AM4PEC) was used, which is based on a competitive immunoassay using a Cryptate-labeled anti-cAMP antibody and d2-labeled cAMP. Native cAMP produced by cells or unlabeled cAMP (for the standard curve) compete with exogenously added d2-labeled cAMP (acceptor) for binding to monoclonal anti-cAMP-Eu3+ Cryptate (donor). A FRET signal (Fluorescence Resonance Energy Transfer) is obtained only if the labeled anti-cAMP antibody binds the d2 labelled cAMP, thus the specific signal (i.e. energy transfer) is inversely proportional to the concentration of cAMP in the standard or sample.
(§4) The BT549 cells (NCI/No. 0507282) are detached from culture dishes with a cell dissociation buffer (Invitrogen, 13151-014), and collected in growing medium (GM: RPMI1640 (Invitrogen 21875)/10% FCS, 1% Penicilin/streptomycin). Cells are counted washed and resuspended in assay buffer (AB; HBSS, 20 mM HEPES, 0.2% BSA; 2 mM IBMX). 4′000 cells in 5 μl of AB are seeded per well of a small volume 384 well plate (black with flat bottom, Greiner 784076).
Stock solutions of test compounds are made at a concentration of 10 mM in DMSO, and serially diluted in DMSO to concentrations required for inhibition dose response curves (tested concentration range 30 μM-0.4 nM; 30 μM-0.015 nM or 1 uM-0.01 nM).
PGE2 (Cayman 14010, stock solution: 6 μM in DMSO) is used as agonist at 6 nM final concentration, corresponding to EC80.
(§5) Two point five microliters of diluted compounds are transferred into the assay plate. Plate is pre-incubated 45 minutes at room temperature. Subsequently, 2.5 microliters of PGE2 (final conc. 6 nM) are transferred into the assay plate. Plate is incubated 30 minutes at room temperature. Five μl of each donor (anti-cAMP cryptate) and acceptor (cAMP-d2) are added and the plate is incubated another hour at room temperature in the dark and then read using a BMG LABTECH PHERAstar reader (Excitation:337 nm, Emission:620 and 665 nm).
(§6) The obtained Delta F(fluorescence) values (665 nm/620 nM) are converted into % cAMP values using the measurements of the cAMP calibrator provided in the kit. For each compound concentration the percentage of cAMP compared to DMSO control value as average±STDEV (each concentration is measured in duplicate) is calculated.
(§7) IC50 values and curves are generated with XLfit software (IDBS) using Dose-Response One Site model 203. When compounds were measured multiple times, mean values are given.

EP2 receptor = target: T2, EP2 receptor (Homo sapiens, UniProt P43116); test: hEP2 cAMP assay (SF295 glioblastoma cells, HTRF cAMP, PGE2 stimulation); type: cell-based; conditions: antagonistic activity
T2 construct: SF295 glioblastoma cells express high endogenous EP2 and no EP4; host or cells: SF295 glioblastoma cells
Experimental: as §1, §2, §3
as §4, with “SF295” for “BT549”, “0503170)” for “0507282)”, “RPM1640” for “RPMI1640”
Stock solutions of test compounds are made at a concentration of 10 mM in DMSO, and serially diluted in DMSO to concentrations required for inhibition dose response curves (tested concentration range 30 μM-0.4 nM; 30 μM-0.015 nM or 1 μM-0.01 nM).
PGE2 (Cayman 14010, stock solution: 75 μM in DMSO) is used as agonist at 75 nM final concentration, corresponding to EC80.
as §5, with “conc. 75” for “conc. 6”, “reader (Excitation: 337” for “reader (Excitation:337”, “nm, Emission: 620” for “nm, Emission:620”
as §6, with “F (fluorescence)” for “F(fluorescence)”
as §7

T2 sequence (P43116 whole entry): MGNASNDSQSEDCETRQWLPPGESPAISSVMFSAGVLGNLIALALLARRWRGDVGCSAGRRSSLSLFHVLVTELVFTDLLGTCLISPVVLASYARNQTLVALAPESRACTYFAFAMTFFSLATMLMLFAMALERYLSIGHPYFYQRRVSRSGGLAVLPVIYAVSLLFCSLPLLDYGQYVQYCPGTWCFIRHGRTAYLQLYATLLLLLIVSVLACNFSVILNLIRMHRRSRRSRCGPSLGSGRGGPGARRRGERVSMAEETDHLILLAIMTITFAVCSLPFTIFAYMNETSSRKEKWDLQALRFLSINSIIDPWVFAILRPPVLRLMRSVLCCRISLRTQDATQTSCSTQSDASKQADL
T1 sequence (P35408 whole entry): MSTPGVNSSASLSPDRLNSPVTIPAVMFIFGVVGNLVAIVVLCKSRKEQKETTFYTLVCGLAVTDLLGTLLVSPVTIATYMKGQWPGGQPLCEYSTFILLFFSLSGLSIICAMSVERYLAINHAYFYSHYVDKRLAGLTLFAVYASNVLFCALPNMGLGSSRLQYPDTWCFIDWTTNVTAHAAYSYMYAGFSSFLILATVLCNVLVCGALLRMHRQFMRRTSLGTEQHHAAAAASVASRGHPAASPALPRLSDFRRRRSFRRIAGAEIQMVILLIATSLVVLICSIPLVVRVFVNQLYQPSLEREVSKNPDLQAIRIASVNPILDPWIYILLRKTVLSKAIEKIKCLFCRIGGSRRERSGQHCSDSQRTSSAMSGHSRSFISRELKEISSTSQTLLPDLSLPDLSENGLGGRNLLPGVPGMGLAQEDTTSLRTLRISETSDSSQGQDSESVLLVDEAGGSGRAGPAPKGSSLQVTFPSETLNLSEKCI

Structure (SMILES)	IC50 (EP4 receptor)	IC50 (EP2 receptor)
COc1ccc(Cl)c2c(CCNc3cc(-c4ccc(C(=O)O)c(OC(C)C)c4)ncn3)c(C)sc12 [Example 98, 4-{6-[2-(4-Chloro-7-methoxy-2-methyl-benzo[b]thiophen-3-yl)-ethylamino]-pyrimidin-4-yl}-2-isopropoxy-benzoic acid]	216 nM	53 nM
CCc1nc(-c2cc(NCCc3c(C)sc4c(C)cc(F)cc34)ncn2)sc1-c1noc(=O)[nH]1 [Example 163, 3-(4-Ethyl-2-{6-[2-(5-fluoro-2,7-dimethyl-benzo[b]thiophen-3-yl)-ethylamino]-pyrimidin-4-yl}-thiazol-5-yl)-[1,2,4]oxadiazol-5(4H)-one [tautomeric form: 3-(4-ethyl-2-(6-((2-(5-fluoro-2,7-dimethylbenzo[b]thiophen-3-yl)ethyl)amino)pyrimidin-4-yl)thiazol-5-yl)-[1,2,4]oxadiazol-5-ol]]	429 nM	20 nM
Cc1sc2c(C)ccc(F)c2c1CCNc1cc(-c2ccc(C(=O)O)c(OC3CCC3)c2)ncn1 [Example 136, 2-Cyclobutoxy-4-{6-[2-(4-fluoro-2,7-dimethyl-benzo[b]thiophen-3-yl)-ethylamino]-pyrimidin-4-yl}-benzoic acid]	411 nM	91 nM
CCOc1cc(-c2cc(NCCc3c(C)sc4c(C)cccc34)ncn2)ccc1CC(=O)O [Example 109, (4-{6-[2-(2,7-Dimethyl-benzo[b]thiophen-3-yl)-ethylamino]-pyrimidin-4-yl}-2-ethoxy-phenyl)-acetic acid]	290 nM	95 nM
CCOc1cc(-c2cc(NCCc3c(C)sc4c(C)cccc34)ncn2)ccc1C(C)C(=O)O (racemic) [Example 126, rac-2-(4-{6-[2-(2,7-Dimethyl-benzo[b]thiophen-3-yl)-ethylamino]-pyrimidin-4-yl}-2-ethoxy-phenyl)-propionic acid]	425 nM	233 nM
COc1ccc(F)c2c(CCNc3cc(-c4cc(F)c(C(=O)O)c(OC5CCC5)c4)ncn3)c(C)sc12 [Example 149, 2-Cyclobutoxy-6-fluoro-4-{6-[2-(4-fluoro-7-methoxy-2-methyl-benzo[b]thiophen-3-yl)-ethylamino]-pyrimidin-4-yl}-benzoic acid]	241 nM	114 nM
CCOc1cc(-c2cc(NCCc3c(C)sc4c(C)cc(F)cc34)ncn2)ccc1-c1nnn[nH]1 [Example 142, {6-[3-Ethoxy-4-(1H-tetrazol-5-yl)-phenyl]-pyrimidin-4-yl}-[2-(5-fluoro-2,7-dimethyl-benzo[b]thiophen-3-yl)-ethyl]-amine]	105 nM	38 nM
CCCCOc1cc(-c2cc(NCCc3c(C)sc4c(C)cc(F)cc34)ncn2)ccc1C(=O)O [Example 127, 2-Butoxy-4-{6-[2-(5-fluoro-2,7-dimethyl-benzo[b]thiophen-3-yl)-ethylamino]-pyrimidin-4-yl}-benzoic acid]	873 nM	106 nM
CCCOc1cc(-c2cc(NCCc3c(C)sc4c(Cl)ccc(Cl)c34)ncn2)ccc1C(=O)O [Example 102, 4-{6-[2-(4,7-Dichloro-2-methyl-benzo[b]thiophen-3-yl)-ethylamino]-pyrimidin-4-yl}-2-propoxy-benzoic acid]	867 nM	54 nM
CCOc1cc(-c2cc(NCCc3c(C#N)sc4c(C)cc(F)cc34)ncn2)ccc1OCCC(=O)O [Example 176, 3-(4-{6-[2-(2-Cyano-5-fluoro-7-methyl-benzo[b]thiophen-3-yl)-ethylamino]-pyrimidin-4-yl}-2-ethoxy-phenoxy)-propionic acid]	12 nM	37 nM
CCOc1cc(-c2cc(NCCc3c(C)sc4c(C)cc(F)cc34)ncn2)sc1-c1nnn[nH]1 [Example 158, {6-[4-Ethoxy-5-(1H-tetrazol-5-yl)-thiophen-2-yl]-pyrimidin-4-yl}-[2-(5-fluoro-2,7-dimethyl-benzo[b]thiophen-3-yl)-ethyl]-amine]	20 nM	4 nM
CCOc1cc(-c2cc(NCCc3c(C#N)sc4c(OC)cccc34)ncn2)ccc1CC(=O)O [Example 164, (4-{6-[2-(2-Cyano-7-methoxy-benzo[b]thiophen-3-yl)-ethylamino]-pyrimidin-4-yl}-2-ethoxy-phenyl)-acetic acid]	17 nM	348 nM
CCOc1cc(-c2cc(NCCc3c(C)sc4c(C)c(F)ccc34)ncn2)ccc1OCC(=O)O [Example 119, (2-Ethoxy-4-{6-[2-(6-fluoro-2,7-dimethyl-benzo[b]thiophen-3-yl)-ethylamino]-pyrimidin-4-yl}-phenoxy)-acetic acid]	110 nM	119 nM
CCOc1cc(-c2cc(NCCc3c(C)sc4c(C)cccc34)ncn2)ccc1OCC(=O)O [Example 122, (4-{6-[2-(2,7-Dimethyl-benzo[b]thiophen-3-yl)-ethylamino]-pyrimidin-4-yl}-2-ethoxy-phenoxy)-acetic acid]	136 nM	40 nM
Cc1cc(-c2cc(NCCc3c(C)oc4ccccc34)ncn2)sc1C(=O)O [Example 6, 3-Methyl-5-{6-[2-(2-methyl-benzofuran-3-yl)-ethylamino]-pyrimidin-4-yl}-thiophene-2-carboxylic acid]	549 nM	4 nM
CCCOc1cc(-c2cc(NCCc3c(C#N)sc4c(C)cc(F)cc34)ncn2)ccc1CC(=O)O [Example 169, (4-{6-[2-(2-Cyano-5-fluoro-7-methyl-benzo[b]thiophen-3-yl)-ethylamino]-pyrimidin-4-yl}-2-propoxy-phenyl)-acetic acid]	30 nM	142 nM
Cc1sc2c(C)cc(F)cc2c1CCNc1cc(-c2ccc(C(=O)O)c(O)c2)ncn1 [Example 10, 4-{6-[2-(5-Fluoro-2,7-dimethyl-benzo[b]thiophen-3-yl)-ethylamino]-pyrimidin-4-yl}-2-hydroxy-benzoic acid]	860 nM	32 nM
COc1cccc2c(CCNc3cc(-c4ccc(C(=O)O)c(SC)c4)ncn3)c(C#N)sc12 [Example 13, 4-{6-[2-(2-Cyano-7-methoxy-benzo[b]thiophen-3-yl)-ethylamino]-pyrimidin-4-yl}-2-methylsulfanyl-benzoic acid]	27 nM	32 nM
CSc1cc(-c2cc(NCCc3c(C#N)sc4c(C)cc(F)cc34)ncn2)ccc1C(=O)O [Example 12, 4-{6-[2-(2-Cyano-5-fluoro-7-methyl-benzo[b]thiophen-3-yl)-ethylamino]-pyrimidin-4-yl}-2-methylsulfanyl-benzoic acid]	20 nM	4 nM
